The test deals with carbonyl reductase IsADH1. Briefly: Substrate specificity of IsADH1: carbonyl reductase activity by NADPH consumption (absorbance at 340 nm). Set-up: key: —: Activity cannot be detected; Trace: a slight level of activity is detected. Type of test: biochemical, Issatchankia scutulata var. scutulata JCM1828 strain. Conditions: purified carbonyl reductase, 2 mM substrate, 0.32 mM NADPH, 100 mM Tris-HCl (pH 7.5), 37° C.; activity to 1-acetoxy-3-chloro-2-propanone defined as 100. How it is done:
The Issatchankia scutulata var. scutulata JCM1828 strain was cultured in 2 L of a medium (80 g of glucose, 20 g of yeast extract (manufactured by Difco), and 40 g/L peptone (manufactured by Kyokuto Pharmaceutical Industrial Co., Ltd.)), and a cell mass was then prepared by centrifugation. 150 g of the obtained wet cell mass was suspended in 10 mM potassium phosphate buffer (pH 7) and 0.1 mM DTT (hereinafter simply referred to as a “buffer”), and it was then crushed with DYNO-MILL KDL (manufactured by Shimaru Enterprises Corp.). Thereafter, the cell mass residue was eliminated by centrifugation, so as to obtain a cell-free extract. Thereafter, PEG6000 was added to the cell-free extract to a concentration of 90 g/L, and the obtained mixture was then left at rest at 4° C. for 1 hour. Thereafter, the precipitate was eliminated by centrifugation. The obtained supernatant was then subjected to anion exchange chromatography using DEAE Sepharose Fast Flow (manufactured by Amersham Biosciences), hydrophobic interaction chromatography using Butyl Sepharose 4 Fast Flow (manufactured by Amersham Biosciences), anion exchange chromatography using MonoQ (manufactured by Amersham Biosciences), and Gel filtration chromatography using Superdex 200 (manufactured by Amersham Biosciences), so that carbonyl reductase of interest could be purified to a single band in electrophoresis.
During purification, the activity of carbonyl reductase was measured by reacting the reaction solution containing an enzyme solution (100 mM Tris-HCl (pH 7.5), 0.32 mM NADPH, and 2 mM 1-acetoxy-3-chloro-2-propanone) at 37° C. and then calculating the amount of NADPH consumed based on a decrease in the absorbance at 340 nm. For the measurement of the absorbance, SPECTRAmax 190 (manufactured by Molecular Devices) was used. It is to be noted that the activity necessary for consuming 1 nmol of NADPH for 1 minute in the aforementioned reaction was defined as 1 U.
With regard to various carbonyl compounds, a reaction solution (100 mM Tris-HCl (pH 7.5), 0.32 mM NADPH, and a 2 mM substrate) containing the carbonyl reductase solution purified in (2) above was prepared, and it was reacted at 37° C. The amount of NADPH consumed in the reaction solution was monitored based on the absorbance at 340 nm, so as to measure carbonyl reductase activity to each compound. For the measurement of the absorbance, SPECTRAmax 190 (manufactured by Molecular Devices) was used. The relative activity of carbonyl reductase to each substrate compound obtained when carbonyl reductase activity to 1-acetoxy-3-chloro-2-propanone was defined as 100 is shown in Table 4.

Among the data in patent US20080233621A1, “Method For Producing Alcohol and Carboxylic Acid Having Optical Activity” (API Corporation, priority 2004, published 2008) are Relative activity values, retold here.

Turning to `CC(=O)C(C)=O` [Diacetyl], the Relative activity entry is on record as “—”.

For the molecule `O=C1CC2CCC1C2` (centres unmarked) [2-norbornanone], the Relative activity entry was “—”.

Take `CCC(=O)c1ccccc1` [Propiophenone]: the Relative activity result is reported as “Trace”.

`O=C(O)C(=O)Cc1ccccc1` [Phenylpyruvic acid] yielded a Relative activity of 12.2.

`CCC(=O)c1cccnc1` [3-propionylpyridine] returned a Relative activity of 11.2.

In the case of `CCOC(=O)CC(=O)c1ccccc1` [Ethyl benzoylacetate], the Relative activity result was “Trace”.

For the molecule `CCOC(=O)C(C)=O` [Ethyl pyruvate], the Relative activity entry is given as “Trace”.

Consider `CC(=O)C(C)O` (centres unmarked) [Acetoin], for which the Relative activity entry is listed as “—”.

For the molecule `CCC(=O)C(C)=O` [2,3-pentadione], the Relative activity entry was “Trace”.

Consider `O=C1CN2CCC1CC2` [3-quinuclidinone], for which the Relative activity entry is listed as “Trace”.

In turn, `CCOC(=O)CC(C)=O` [Ethyl 3-oxobutyrate] returned a Relative activity of 25.5.

`CCOC(=O)CC(=O)c1cccnc1` [Ethyl nicotinoylacetate]: the Relative activity was 20.7.

As to `O=Cc1ccc(O)cc1` [p-hydroxybenzaldehyde], the Relative activity entry was “—”.

In turn, `CCOC(=O)CC(=O)CCl` [Ethyl 4-chloro-3-oxobutyrate] displayed a Relative activity of 212.

`CC(=O)COc1ccccc1` [Phenoxyacetone]: the Relative activity result is “—”.

With `CC(=O)c1ccccc1` [Acetophenone], the Relative activity entry is on record as “—”.

The molecule `CC(=O)OCC(=O)CCl` [1-acetoxy-3-chloro-2-propanone] had a Relative activity of 100.

`CCOC(=O)C(=O)C(C)C` [Ethyl 3-methyl-2-oxobutylate]: the Relative activity entry is recorded as “Trace”.

`O=Cc1ccc(Cl)cc1` [p-chlorobenzaldehyde] registered a Relative activity of 58.0.

As for `O=C(c1ccccc1)C(F)(F)F` [2,2,2-trifluoroacetophenone], the Relative activity stood at 53.8.
